Measurements taken from patent publication US7442699B2, “Anilinopyrimidine derivatives as IKK inhibitors and compositions and methods related thereto” (Signal Pharmaceuticals, LLC, priority 2000, dated 2008).
Like-named read-outs stand apart in the source and are kept apart here.

Molecular target: T1, IKK-2 (Homo sapiens, UniProt O14920, S177E/S181E)
T1 construct: His6
T1 sequence (O14920 1-756 S177E/S181E): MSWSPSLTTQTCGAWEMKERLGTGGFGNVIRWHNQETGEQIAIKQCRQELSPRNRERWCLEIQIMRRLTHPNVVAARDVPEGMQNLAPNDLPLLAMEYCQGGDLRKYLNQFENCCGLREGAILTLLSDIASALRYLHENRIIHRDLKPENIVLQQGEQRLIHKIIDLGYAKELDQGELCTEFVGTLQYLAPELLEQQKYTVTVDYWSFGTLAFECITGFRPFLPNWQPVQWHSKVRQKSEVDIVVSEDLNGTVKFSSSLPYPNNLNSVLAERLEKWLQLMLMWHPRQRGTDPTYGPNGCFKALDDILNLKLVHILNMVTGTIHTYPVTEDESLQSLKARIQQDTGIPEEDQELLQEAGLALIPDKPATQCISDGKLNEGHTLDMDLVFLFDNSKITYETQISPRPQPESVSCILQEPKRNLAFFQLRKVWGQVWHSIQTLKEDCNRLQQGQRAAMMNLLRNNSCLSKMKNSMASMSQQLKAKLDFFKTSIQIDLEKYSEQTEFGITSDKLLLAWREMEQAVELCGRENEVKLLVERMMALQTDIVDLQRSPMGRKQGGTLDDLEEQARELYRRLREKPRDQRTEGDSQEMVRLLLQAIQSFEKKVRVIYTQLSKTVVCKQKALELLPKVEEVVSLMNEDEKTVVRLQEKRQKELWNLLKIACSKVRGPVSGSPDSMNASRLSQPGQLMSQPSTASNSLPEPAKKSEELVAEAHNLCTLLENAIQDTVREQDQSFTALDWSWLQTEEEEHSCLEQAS
Experiment: IKK-2 Enzyme Assay
Assay type: biochemical
Method: The mixture is preincubated for 15 minutes at room temperature. […] After 30 minutes the precipitate is harvested onto a filter plate to which 50 μl of scintillation fluid is added and then quantified by a scintillation counter.

[1] = preferred compounds, 1 μM or less, read-out: IC50 value in the IKK-2 Enzyme Assay
[2] = more preferred compounds, 500 nM or less, read-out: IC50 value in the IKK-2 Enzyme Assay

| Compound | IC50 [1] [nM] | IC50 [2] [nM] | IC50 (IC50 value in the IKK-2 Enzyme Assay, more preferred compounds, 500 nM or less) [nM] | IC50 (IC50 value in the IKK-2 Enzyme Assay, preferred compounds, 1 μM or less) [nM] |
| --- | --- | --- | --- | --- |
| NC(=O)c1ccc(Nc2nccc(-c3ccc(Cl)cc3)n2)cc1 [Compound 1, 4-{[4-(4-chlorophenyl)pyrimidin-2-yl]amino}benzamide] | ≤ 1000 |  |  |  |
| NC(=O)c1ccc(Nc2nccc(-c3ccc(S(=O)(=O)c4ccncc4)cc3)n2)cc1 [Compound 3-8] | ≤ 1000 | ≤ 500 |  |  |
| NC(=O)c1ccc(Nc2nccc(-c3ccc(S(=O)(=O)c4ccccn4)cc3)n2)cc1 [Compound 3-9] | ≤ 1000 |  |  |  |
| NC(=O)c1ccc(Nc2nccc(-c3ccc(S(=O)(=O)c4cccnc4)cc3)n2)cc1 [Compound 3-13] | ≤ 1000 |  |  |  |
| NC(=O)c1ccc(Nc2nccc(-c3ccc(SCCCO)cc3)n2)cc1 [Compound 3-14] | ≤ 1000 | ≤ 500 |  |  |
| NC(=O)c1ccc(Nc2nccc(-c3ccc(S(=O)(=O)CCCO)cc3)n2)cc1 [Compound 3-15] | ≤ 1000 |  |  |  |
| NC(=O)c1ccc(Nc2nccc(-c3ccc(S(=O)(=O)c4ccccc4)cc3)n2)cc1 [Compound 3-21] | ≤ 1000 | ≤ 500 |  |  |
| NC(=O)c1ccc(Nc2nccc(-c3ccc4ccccc4c3)n2)cc1 [Compound 3-34] | ≤ 1000 |  |  |  |
| CN(C)C(=O)c1ccc(Nc2nccc(-c3ccc(Cl)cc3)n2)cc1 [Compound 17-2] | ≤ 1000 | ≤ 500 |  |  |
| CNC(=O)c1ccc(Nc2nccc(-c3ccc(Cl)cc3)n2)cc1 [Compound 17-3] | ≤ 1000 |  |  |  |
| CN(C)C(=O)c1ccc(Nc2nccc(-c3ccc(Br)cc3)n2)cc1 [Compound 17-18] | ≤ 1000 | ≤ 500 |  |  |
| O=C(c1ccc(Nc2nccc(-c3ccc(Cl)cc3)n2)cc1)N1CCC(O)CC1 [Compound 17-20] | ≤ 1000 | ≤ 500 |  |  |
| O=C(NCCCn1ccnc1)c1ccc(Nc2nccc(-c3ccc(Cl)cc3)n2)cc1 [Compound 17-21] | ≤ 1000 |  |  |  |
| CC(=O)NCCNC(=O)c1ccc(Nc2nccc(-c3ccc(Cl)cc3)n2)cc1 [Compound 17-22] | ≤ 1000 |  |  |  |
| O=C(NCCCN1CCCCC1)c1ccc(Nc2nccc(-c3ccc(Cl)cc3)n2)cc1 [Compound 17-23] | ≤ 1000 |  |  |  |
| O=C(NCCCO)c1ccc(Nc2nccc(-c3ccc(Cl)cc3)n2)cc1 [Compound 17-25] | ≤ 1000 |  |  |  |
| O=C(c1ccc(Nc2nccc(-c3ccc(Cl)cc3)n2)cc1)N1CCC[C@@H]1CO [Compound 17-27] | ≤ 1000 | ≤ 500 |  |  |
| O=C(c1ccc(Nc2nccc(-c3ccc(Cl)cc3)n2)cc1)N1CCC(O)C1 (stereo not drawn) [Compound 17-28] | ≤ 1000 | ≤ 500 |  |  |
| CC(=O)N1CCN(C(=O)c2ccc(Nc3nccc(-c4ccc(S(=O)(=O)c5ccncc5)cc4)n3)cc2)CC1 [Compound 17-29] | ≤ 1000 | ≤ 500 |  |  |
| O=C(c1ccc(Nc2nccc(-c3ccc(S(=O)(=O)c4ccncc4)cc3)n2)cc1)N1CCN(C(=O)c2ccco2)CC1 [Compound 17-30] | ≤ 1000 | ≤ 500 |  |  |

| Compound | IC50 [1] [nM] | IC50 [2] [nM] | IC50 (IC50 value in the IKK-2 Enzyme Assay, more preferred compounds, 500 nM or less) [nM] | IC50 (IC50 value in the IKK-2 Enzyme Assay, preferred compounds, 1 μM or less) [nM] |
| --- | --- | --- | --- | --- |
| CN(C)C(=O)c1ccc(Nc2nccc(-c3ccc(SCCCO)cc3)n2)cc1 [Compound 17-31] | ≤ 1000 | ≤ 500 |  |  |
| CC(C)NC(=O)CN1CCN(C(=O)c2ccc(Nc3nccc(-c4ccc(SCCCO)cc4)n3)cc2)CC1 [Compound 17-32] | ≤ 1000 | ≤ 500 |  |  |
| CC(=O)N1CCN(C(=O)c2ccc(Nc3nccc(-c4ccc(SCCCO)cc4)n3)cc2)CC1 [Compound 17-33] | ≤ 1000 | ≤ 500 |  |  |
| O=C(c1ccc(Nc2nccc(-c3ccc(SCCCO)cc3)n2)cc1)N1CCN(C(=O)c2ccco2)CC1 [Compound 17-34] | ≤ 1000 | ≤ 500 |  |  |
| CCN1CCN(C(=O)c2ccc(Nc3nccc(-c4ccc(Cl)cc4)n3)cc2)CC1 [Compound 17-35] | ≤ 1000 | ≤ 500 |  |  |
| CC(C)(C)OC(=O)N1CCN(C(=O)c2ccc(Nc3nccc(-c4ccc(Cl)cc4)n3)cc2)CC1 [Compound 17-36] | ≤ 1000 | ≤ 500 |  |  |
| CCC(=O)N1CCN(C(=O)c2ccc(Nc3nccc(-c4ccc(Cl)cc4)n3)cc2)CC1 [Compound 17-37] |  | ≤ 500 |  |  |
| O=C(NCCCN1CCCC1=O)c1ccc(Nc2nccc(-c3ccc(Cl)cc3)n2)cc1 [Compound 17-54] | ≤ 1000 |  |  |  |
| O=C(c1ccc(Nc2nccc(-c3ccc(Cl)cc3)n2)cc1)N1CCCCC1 [Compound 17-71] | ≤ 1000 |  |  |  |
| COCCCNC(=O)c1ccc(Nc2nccc(-c3ccc(Cl)cc3)n2)cc1 [Compound 17-72] | ≤ 1000 |  |  |  |
| O=C(NCCCN1CCOCC1)c1ccc(Nc2nccc(-c3ccc(Cl)cc3)n2)cc1 [Compound 17-86] | ≤ 1000 | ≤ 500 |  |  |
| COC(=O)CNC(=O)c1ccc(Nc2nccc(-c3ccc(Cl)cc3)n2)cc1 [Compound 17-91] | ≤ 1000 | ≤ 500 |  |  |
| O=C(NCCc1ccccn1)c1ccc(Nc2nccc(-c3ccc(Cl)cc3)n2)cc1 [Compound 17-118] | ≤ 1000 |  |  |  |
| CN1CCN(C(=O)c2ccc(Nc3nccc(-c4ccc(Cl)cc4)n3)cc2)CC1 [Compound 17-127] | ≤ 1000 | ≤ 500 |  |  |
| O=C(c1ccc(Nc2nccc(-c3ccc(Cl)cc3)n2)cc1)N1CCN(Cc2ccc3c(c2)OCO3)CC1 [Compound 17-128] | ≤ 1000 |  |  |  |
| CC(=O)N1CCN(C(=O)c2ccc(Nc3nccc(-c4ccc(Cl)cc4)n3)cc2)CC1 [Compound 17-129] | ≤ 1000 | ≤ 500 |  |  |
| O=CN1CCN(C(=O)c2ccc(Nc3nccc(-c4ccc(Cl)cc4)n3)cc2)CC1 [Compound 17-131] | ≤ 1000 | ≤ 500 |  |  |
| CCCNC(=O)c1ccc(Nc2nccc(-c3ccc(Cl)cc3)n2)cc1 [Compound 17-132] | ≤ 1000 |  |  |  |
| O=C(c1ccc(Nc2nccc(-c3ccc(Cl)cc3)n2)cc1)N1CCOCC1 [Compound 17-133] | ≤ 1000 | ≤ 500 |  |  |
| O=C(c1ccc(Nc2nccc(-c3ccc(Cl)cc3)n2)cc1)N1CCN(c2ccc([N+](=O)[O-])cc2)CC1 [Compound 17-136] | ≤ 1000 |  |  |  |

| Compound | IC50 [1] [nM] | IC50 [2] [nM] | IC50 (IC50 value in the IKK-2 Enzyme Assay, more preferred compounds, 500 nM or less) [nM] | IC50 (IC50 value in the IKK-2 Enzyme Assay, preferred compounds, 1 μM or less) [nM] |
| --- | --- | --- | --- | --- |
| CCOC(=O)N1CCN(C(=O)c2ccc(Nc3nccc(-c4ccc(Cl)cc4)n3)cc2)CC1 [Compound 17-137] | ≤ 1000 | ≤ 500 |  |  |
| O=C(c1ccc(Nc2nccc(-c3ccc(Cl)cc3)n2)cc1)N1CCC2(CC1)OCCO2 [Compound 17-139] |  |  | ≤ 500 | ≤ 1000 |
| CC(C)NC(=O)CN1CCN(C(=O)c2ccc(Nc3nccc(-c4ccc(Cl)cc4)n3)cc2)CC1 [Compound 17-141] | ≤ 1000 | ≤ 500 |  |  |
| O=C(NCCN1CCOCC1)c1ccc(Nc2nccc(-c3ccc(Cl)cc3)n2)cc1 [Compound 17-142] | ≤ 1000 |  |  |  |
| O=C(c1ccc(Nc2nccc(-c3ccc(Cl)cc3)n2)cc1)N1CC=CCC1 [Compound 17-144] | ≤ 1000 |  |  |  |
| CCN(Cc1ccncc1)C(=O)c1ccc(Nc2nccc(-c3ccc(Cl)cc3)n2)cc1 [Compound 17-147] | ≤ 1000 |  |  |  |
| CN(C)CCN(Cc1ccccc1)C(=O)c1ccc(Nc2nccc(-c3ccc(Cl)cc3)n2)cc1 [Compound 17-150] | ≤ 1000 | ≤ 500 |  |  |
| CN(CCc1ccccn1)C(=O)c1ccc(Nc2nccc(-c3ccc(Cl)cc3)n2)cc1 [Compound 17-151] | ≤ 1000 |  |  |  |
| CN1CCCC1CCNC(=O)c1ccc(Nc2nccc(-c3ccc(Cl)cc3)n2)cc1 (stereo not drawn) [Compound 17-152] | ≤ 1000 |  |  |  |
| CCN(CC)CCCNC(=O)c1ccc(Nc2nccc(-c3ccc(Cl)cc3)n2)cc1 [Compound 17-153] | ≤ 1000 |  |  |  |
| CN(C)CCCNC(=O)c1ccc(Nc2nccc(-c3ccc(Cl)cc3)n2)cc1 [Compound 17-154] | ≤ 1000 | ≤ 500 |  |  |
| O=C(c1ccc(Nc2nccc(-c3ccc(Cl)cc3)n2)cc1)N1CCN(c2ccccc2)CC1 [Compound 17-158] | ≤ 1000 |  |  |  |
| O=C(c1ccc(Nc2nccc(-c3ccc(Cl)cc3)n2)cc1)N1CCN(C(=O)c2ccco2)CC1 [Compound 17-159] | ≤ 1000 | ≤ 500 |  |  |
| CC(=O)N1CCCN(C(=O)c2ccc(Nc3nccc(-c4ccc(Cl)cc4)n3)cc2)CC1 [Compound 17-160] | ≤ 1000 | ≤ 500 |  |  |
| O=C(c1ccc(Nc2nccc(-c3ccc(Cl)cc3)n2)cc1)N1CCN(Cc2cccnc2)CC1 [Compound 17-161] | ≤ 1000 | ≤ 500 |  |  |
| CCN(C(C)=O)C1CCN(C(=O)c2ccc(Nc3nccc(-c4ccc(Cl)cc4)n3)cc2)C1 (stereo not drawn) [Compound 17-162] | ≤ 1000 | ≤ 500 |  |  |
| CC(=O)N(C)C1CCN(C(=O)c2ccc(Nc3nccc(-c4ccc(Cl)cc4)n3)cc2)C1 (stereo not drawn) [Compound 17-163] | ≤ 1000 | ≤ 500 |  |  |
| O=C(c1ccc(Nc2nccc(-c3ccc(Cl)cc3)n2)cc1)N1CCC(N2CCCCC2)CC1 [Compound 17-169] | ≤ 1000 | ≤ 500 |  |  |
| O=C(c1ccc(Nc2nccc(-c3ccc(Cl)cc3)n2)cc1)N1CCC(N2CCCC2)CC1 [Compound 17-171] | ≤ 1000 | ≤ 500 |  |  |
